System: T cell activation associated with MHC/antigen/TCR complexes
Experiment: In vitro T cell activation assays
Assay type: cell-based

Q: For O=C(CNC(=O)N1CCCC1)NNC(=O)Nc1ccc2ccccc2c1 [Formula IV], which “activity in in vitro T cell activation assays” value is on record?
A: The value was “showed activity”.
